Data on 27 compounds can be found in patent publication US8629157B2, “Pyrrolidine compounds which modulate the CB2 receptor” (Boehringer Ingelheim International GmbH, priority 2009, dated 2014).

Chain of human CB2R (P34972 whole entry): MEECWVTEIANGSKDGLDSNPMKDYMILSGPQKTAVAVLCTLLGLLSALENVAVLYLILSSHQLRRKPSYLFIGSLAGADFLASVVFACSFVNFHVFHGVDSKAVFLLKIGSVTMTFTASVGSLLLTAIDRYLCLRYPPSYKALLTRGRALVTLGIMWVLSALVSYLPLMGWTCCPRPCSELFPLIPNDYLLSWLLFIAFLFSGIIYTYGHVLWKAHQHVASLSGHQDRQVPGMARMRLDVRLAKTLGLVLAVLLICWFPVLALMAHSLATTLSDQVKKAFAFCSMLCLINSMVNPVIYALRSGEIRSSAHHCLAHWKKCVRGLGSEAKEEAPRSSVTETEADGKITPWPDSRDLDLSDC

The first assay addresses human CB2R (Homo sapiens, UniProt P34972). The experiment in a line: CB2R mediated modulation of cAMP synthesis. The format is cell-based.
Settings: not given
The gist of the method:
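CHO cells expressing human CB2R were treated 30 min at 37° C. with compounds in buffer containing 1 mM IBMX, 0.25% BSA and 10 uM forskolin; cAMP in lysates was measured by DiscoverX-XS kit.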
As to `CC(C)(C)c1cc(NC(=O)[C@@H]2CCC(=O)N2c2cccc(F)c2)on1` [(S)-1-(3-Fluoro-phenyl)-5-oxo-pyrrolidine-2-carboxylic acid (3-tert-butyl-isoxazol-5-yl)-amide], the EC50 was found to be 357 nM.
Same read-out and setting: for `COc1ccc(N2C(=O)CC[C@H]2C(=O)Nc2cc(C(C)(C)C)no2)cc1` [(S)-1-(4-Methoxy-phenyl)-5-oxo-pyrrolidine-2-carboxylic acid (3-tert-butyl-isoxazol-5-yl)-amide] the value was 163 nM.
In turn, `O=C(Nc1nc(-c2ccccc2)ns1)[C@@H]1C[C@@H](O)CN1c1ccc(C(F)(F)F)cn1` [(2S,4R)-4-Hydroxy-1-(5-trifluoromethyl-pyridin-2-yl)-pyrrolidine-2-carboxylic acid (3-phenyl-1,2,4-thiadiazol-5-yl)-amide] yielded an EC50 of 357 nM.
On the same count and under the same terms, for `C[C@@]1(C(=O)Nc2ccc(C(F)(F)F)cn2)CCCN1c1ccc(Cl)cc1` [(S)-1-(4-Chloro-phenyl)-2-methyl-pyrrolidine-2-carboxylic acid (5-trifluoromethyl-pyridin-2-yl)-amide] the value was 27.2 nM; for `O=C(Nc1nc2ccc(Cl)cc2s1)[C@@H]1CCCN1CC1CCOCC1` [(S)-1-(Tetrahydro-pyran-4-ylmethyl)-pyrrolidine-2-carboxylic acid (6-chloro-benzothiazol-2-yl)-amide], 188 nM.
Consider `CC(C)(C)c1cc(NC(=O)[C@@H]2CCCN2C2CCCC2)on1` [(S)-1-Cyclopentyl-pyrrolidine-2-carboxylic acid (3-tert-butyl-isoxazol-5-yl)-amide], for which the EC50 amounted to 2.39 nM.
The same measure, in the same setting: for `COCC(C)(C)c1cc(NC(=O)[C@@H]2CCC(=O)N2c2ccc(Cl)cc2)no1` [(S)-l-(4-Chloro-phenyl)-5-oxo-pyrrolidine-2-carboxylic acid [5-(2-methoxy-1,1-dimethyl-ethyl)-isoxazol-3-yl]-amide] the value was 86.1 nM; for `CC(C)(C)c1csc(NC(=O)[C@@H]2CCCN2CC2CCOCC2)n1` [(S)-1-(Tetrahydro-pyran-4-ylmethyl)-pyrrolidine-2-carboxylic acid (4-tert-butyl-thiazol-2-yl)-amide], 17.6 nM.
Compound `CC(C)(C)c1cc(NC(=O)[C@@H]2CCC(=O)N2c2ccc(Cl)s2)on1` [(S)-1-(5-Chloro-thiophen-2-yl)-5-oxo-pyrrolidine-2-carboxylic acid (3-tert-butyl-isoxazol-5-yl)-amide] registered an EC50 of 67.5 nM.
Consider `CC(C)(C)c1cc(NC(=O)[C@@H]2CCC(=O)N2c2ccc(F)cn2)on1` [(S)-1-(5-Fluoro-pyridin-2-yl)-5-oxo-pyrrolidine-2-carboxylic acid (3-tert-butyl-isoxazol-5-yl)-amide], for which the EC50 was 8.15 nM.
Take `CC(C)(C)c1cc(NC(=O)[C@@H]2CCC(=O)N2c2cccc(Cl)c2)on1` [(S)-1-(3-Chloro-phenyl)-5-oxo-pyrrolidine-2-carboxylic acid (3-tert-butyl-isoxazol-5-yl)-amide]: it took 203 nM to reach a half-maximal effect (EC50).
Consider `CC(C)(C)c1cc(NC(=O)[C@@H]2CCCN2CC2CCOC2)on1` (stereo partly drawn) [(S)-1-(Tetrahydro-furan-3-ylmethyl)-pyrrolidine-2-carboxylic acid (3-tert-butyl-isoxazol-5-yl)-amide], for which a half-maximal response (EC50) required 0.116 nM.
With `CC(C)(C)c1nnc(NC(=O)[C@@H]2CCCN2CC2CCOCC2)s1` [(S)-1-(Tetrahydro-pyran-4-ylmethyl)-pyrrolidine-2-carboxylic acid (5-tert-butyl-1,3,4-thiadiazol-2-yl)-amide], the EC50 was determined as 16.5 nM.
Regarding `CC(C)(C)c1cc(NC(=O)[C@@H]2CCC(=O)N2c2ccc(OC(F)(F)F)cc2)on1` [(S)-5-Oxo-1-(4-trifluoromethoxy-phenyl)-pyrrolidine-2-carboxylic acid (3-tert-butyl-isoxazol-5-yl)-amide], the EC50 amounted to 34.5 nM.
`CC1(C)CC(CN2CCCC2C(=O)Nc2cc(C(C)(C)C)no2)CCO1` (stereo not drawn) [1-(2,2-Dimethyl-tetrahydro-pyran-4-ylmethyl)-pyrrolidine-2-carboxylic acid (3-tert-butyl-isoxazol-5-yl)-amide] returned an EC50 of 7.1 nM.
The compound `CC(C)(C)c1nnc(NC(=O)[C@@H]2CCCN2C2CCCC2(C)C)s1` (stereo partly drawn) [1-(2,2-Dimethyl-cyclopentyl)-pyrrolidine-2-carboxylic acid (5-tert-butyl-1,3,4-thiadiazol-2-yl)-amide] had an EC50 of 445 nM.
`O=C(Nc1nc(C(F)(F)F)co1)[C@@H]1CCCN1c1ccc(Cl)cc1` [(S)-1-(4-Chloro-phenyl)-pyrrolidine-2-carboxylic acid (4-trifluoromethyl-oxazol-2-yl)-amide] yielded an EC50 of 5.79 nM.
On the same count and under the same terms, with `Cc1ccc(N2C(=O)CC[C@H]2C(=O)Nc2cc(C(C)(C)C)no2)nc1` [(S)-1-(5-Methyl-pyridin-2-yl)-5-oxo-pyrrolidine-2-carboxylic acid (3-tert-butyl-isoxazol-5-yl)-amide] the figure was 15.4 nM; with `CC(C)(C)c1cc(NC(=O)[C@@H]2C[C@@H](O)CN2c2ncc(C(F)(F)F)cc2Cl)on1` [(2S,4R)-1-(3-Chloro-5-trifluoromethyl-pyridin-2-yl)-4-hydroxy-pyrrolidine-2-carboxylic acid (3-tert-butyl-isoxazol-5-yl)-amide], 3.25 nM; with `O=C(Nc1nc2cc(Cl)c(Cl)cc2[nH]1)[C@@H]1CCCN1C1CCOCC1` [(S)-1-(Tetrahydro-pyran-4-yl)-pyrrolidine-2-carboxylic acid (5,6-dichloro-1H-benzimidazol-2-yl)-amide], 165 nM.
Regarding `CCc1sc(NC(=O)[C@@H]2C[C@@H](O)CN2CC2CCOCC2)nc1-c1ccccc1` [(2S,4R)-4-Hydroxy-1-(tetrahydro-pyran-4-ylmethyl)-pyrrolidine-2-carboxylic acid (5-ethyl-4-phenyl-thiazol-2-yl)-amide], the EC50 turned out to be 7.93 nM.
Regarding `CC(C)(C)c1cc(NC(=O)[C@@H]2CCC(=O)N2c2ccc(C(F)F)cc2)on1` [(S)-1-(4-Difluoromethyl-phenyl)-5-oxo-pyrrolidine-2-carboxylic acid (3-tert-butyl-isoxazol-5-yl)-amide], the EC50 came out at 15.2 nM.
Take `CC(C)(C)Cc1cc(NC(=O)[C@@H]2CCCN2C2CCOCC2)on1` [(S)-1-(Tetrahydro-pyran-4-yl)-pyrrolidine-2-carboxylic acid [3-(2,2-dimethyl-propyl)-isoxazol-5-yl]-amide]: the EC50 amounted to 14.9 nM.
In the case of `CC(C)(C)SCCNC(=O)[C@@H]1CCCN1c1ccc(Cl)cc1` [(S)-1-(4-Chloro-phenyl)-pyrrolidine-2-carboxylic acid (2-tert-butylsulfanyl-ethyl)-amide], the EC50 is 2.61 nM.

The assay is the same for the next values; noted with them: CHO cells expressing human CB2R; inhibition of forskolin-stimulated cAMP synthesis; mean; read-out: CB2 CAMP @ EC50 nM (mean).
In the case of `O=C(Nc1nc2cc(Cl)ccc2s1)[C@@H]1CCCN1CC1CCOCC1` [(S)-1-(Tetrahydro-pyran-4-ylmethyl)-pyrrolidine-2-carboxylic acid (5-chloro-benzothiazol-2-yl)-amide], the EC50 is 3.14 nM.
On the same count and under the same terms, for `COc1ccc(-c2nsc(NC(=O)[C@@H]3CCC(=O)N3c3ccc(C(F)(F)F)cc3)n2)cc1` [(S)-5-Oxo-1-(4-trifluoromethyl-phenyl)-pyrrolidine-2-carboxylic acid [3-(4-methoxy-phenyl)-1,2,4-thiadiazol-5-yl]-amide] the value was 178 nM; for `COc1ccc(-c2nsc(NC(=O)[C@@H]3CCC(=O)N3c3ccc(Cl)cc3)n2)cc1` [(S)-1-(4-Chloro-phenyl)-5-oxo-pyrrolidine-2-carboxylic acid [3-(4-methoxy-phenyl)-1,2,4-thiadiazol-5-yl]-amide], 194 nM.

For orientation: EC50 means the concentration that produces a half-maximal response.
